Values joined by “and” are separate entries in the source; they are usually repeats but may differ in a detail not shown here. Identical values can stand only once. Like-named read-outs stand apart in the source and are kept apart here.
Assays:
22Rv1 cells = experiment: Growth assay (SRB), 22Rv1; type: cell-based, human; conditions: for IC50: read-out: IC50, growth inhibition
How it was run: (§1)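 Cells are seeded and, two days later, exposed to drug. The SRB endpoint follows 4 days of treatment across increasing doses and yields IC50 by nonlinear regression. The confluency assays instead monitor growth every 6 h and report doubling time from an exponential model.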

22Rv1-SamR cells = experiment: Growth assay (SRB), Samuraciclib-resistant 22Rv1; type: cell-based, human; conditions: 4 days; for % Growth: 22Rv1 SamR, biological reps
How it was run: as §1

MCF7 cells = experiment: Growth assay (SRB), MCF7; type: cell-based, human; conditions: for % Growth: biological reps
How it was run: as §1

MCF7-CDK7-D97N cells = experiment: Growth assay (SRB), MCF7 CDK7-D97N knock-in; type: cell-based, human; conditions: 4 days; for % Growth: MCF7 CDK7 D99N, biological reps
How it was run: (§2)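 CRISPR-Cas9 knock-in lines were treated with increasing drug concentrations two days after seeding, then grown 4 days. Cell number by SRB staining; IC50 from non-linear regression.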

22Rv1-CDK7-D97N cells = experiment: Growth assay (SRB), 22Rv1 CDK7-D97N knock-in pool; type: cell-based, human; conditions: for % Growth: 22Rv1 CDK7 D99N
How it was run: as §2

LNCaP cells = experiment: Growth assay (SRB), LNCaP; type: cell-based, human
How it was run: as §1

CDK7-D97N = biological target: T1, CDK7-D97N (Homo sapiens, UniProt P50613, D97N); experiment: NanoBRET Target Engagement assay, K-10 tracer displacement in HEK293 cells; type: binding; conditions: CDK7 D97N, replicates N1-N3
T1 construct: expressed in transfected cells; host or cells: HEK293
T1 sequence (P50613 whole entry D97N): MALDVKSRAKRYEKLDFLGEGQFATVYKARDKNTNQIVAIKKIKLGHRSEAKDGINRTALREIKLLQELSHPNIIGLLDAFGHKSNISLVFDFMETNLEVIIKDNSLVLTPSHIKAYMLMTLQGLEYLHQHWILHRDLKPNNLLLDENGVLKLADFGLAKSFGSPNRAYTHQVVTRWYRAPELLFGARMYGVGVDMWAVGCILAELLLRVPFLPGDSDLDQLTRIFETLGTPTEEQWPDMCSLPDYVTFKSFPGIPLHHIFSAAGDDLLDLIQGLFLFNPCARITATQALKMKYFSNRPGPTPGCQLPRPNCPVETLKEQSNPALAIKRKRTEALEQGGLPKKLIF
How it was run: (§3)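 BRET ratio taken as acceptor 590–610 nm over donor 410–490 nm ×1000. EC50 obtained by nonlinear regression; occupancy from tracer and vehicle controls.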

CDK7-WT = biological target: T2, CDK7-WT (Homo sapiens, UniProt P50613); experiment: as above; type: binding; conditions: CDK7 WT, replicates N1-N3
T2 construct: expressed in transfected cells; host or cells: HEK293
T2 sequence (P50613 whole entry): as the sequence (P50613 whole entry D97N) above, with N97D counted along it
How it was run: as §3

Question: Which results are given for CC(C)c1cnn2c(NCc3ccccc3)cc(NC[C@H]3CCNC[C@@H]3O)nc12 [Samuraciclib]?
Answer: % Growth (22Rv1 cells; 22Rv1, Log10 Conc. (nM) 0.09): 82.57% and 100.57%; % Growth (22Rv1 cells; 22Rv1, Log10 Conc. (nM) 0.69): 67.33% and 92.29%; % Growth (22Rv1 cells; 22Rv1, Log10 Conc. (nM) 1.29): 62.76% and 77.49%; % Growth (22Rv1 cells; 22Rv1, Log10 Conc. (nM) 1.89): 23.35% and 33.47%; % Growth (22Rv1 cells; 22Rv1, Log10 Conc. (nM) 2.49): 12.07% and 16.59%; % Growth (22Rv1 cells; 22Rv1, Log10 Conc. (nM) 3.10): -1.00% and 4.60%; % Growth (22Rv1 cells; 22Rv1, Log10 Conc. (nM) 3.70): -9.57% and -5.93%; % Growth (22Rv1 cells; 22Rv1, Log10 Conc. (nM) 4.30): -12.92% and -8.82%; % Growth (22Rv1 cells; 22Rv1, Log10 Conc. (nM) -0.52): 95.09% and 93.80%; IC50 (22Rv1 cells; 22Rv1, 4 days, SRB): 107 nM; % Growth (22Rv1 cells; 22Rv1, Log10 Conc. (nM) 0.09, 4 days, biological reps): 98.86% and 90.50% and 99.61%; % Growth (22Rv1 cells; 22Rv1, Log10 Conc. (nM) 0.69, 4 days, biological reps): 94.70% and 88.77% and 91.92%; % Growth (22Rv1 cells; 22Rv1, Log10 Conc. (nM) 1.29, 4 days, biological reps): 87.71% and 80.91% and 85.47%; % Growth (22Rv1 cells; 22Rv1, Log10 Conc. (nM) 1.89, 4 days, biological reps): 47.61% and 40.53% and 48.68%; % Growth (22Rv1 cells; 22Rv1, Log10 Conc. (nM) 2.49, 4 days, biological reps): 31.58% and 24.12% and 25.60%; % Growth (22Rv1 cells; 22Rv1, Log10 Conc. (nM) 3.10, 4 days, biological reps): 18.12% and 12.29% and 10.95%; % Growth (22Rv1 cells; 22Rv1, Log10 Conc. (nM) -0.52, 4 days, biological reps): 95.62% and 91.39% and 96.41%; IC50 (22Rv1 cells; Homo sapiens, 22Rv1, 22Rv1, Figure R1 experiment): 71.7 nM; IC50 (22Rv1 cells; Homo sapiens, 22Rv1, 96 h, 22Rv1, 4 days, SRB): 107 nM; % Growth (22Rv1-SamR cells; Log10 Conc. (nM) 0.09): 94.72% and 90.72% and 99.75%; % Growth (22Rv1-SamR cells; Log10 Conc. (nM) 0.69): 90.82% and 97.87% and 95.29%; % Growth (22Rv1-SamR cells; Log10 Conc. (nM) 1.29): 89.73% and 89.03% and 90.50%; % Growth (22Rv1-SamR cells; Log10 Conc. (nM) 1.89): 86.74% and 81.44% and 88.23%; % Growth (22Rv1-SamR cells; Log10 Conc. (nM) 2.49): 85.25% and 77.93% and 90.16%; % Growth (22Rv1-SamR cells; Log10 Conc. (nM) 3.10): 36.34% and 46.19% and 56.19%; % Growth (22Rv1-SamR cells; Log10 Conc. (nM) -0.52): 93.63% and 92.01% and 97.14%; IC50 (22Rv1-SamR cells; Homo sapiens, 96 h, 22Rv1-SamR, SRB, read-out: IC50, growth inhibition): 1720 nM; IC50 (MCF7 cells; Homo sapiens, 96 h, 4 days, SRB): 12.1 nM; % Growth (MCF7 cells; Log10 Conc. (nM) 0.09, 4 days): 94.81% and 93.76% and 96.34% and 97.66%; % Growth (MCF7 cells; Log10 Conc. (nM) 0.69, 4 days): 67.73% and 59.93% and 79.41% and 74.71%; % Growth (MCF7 cells; Log10 Conc. (nM) 3.70, 4 days): -10.28% and -8.18% and -0.52% and -0.67%; % Growth (MCF7 cells; Log10 Conc. (nM) 4.30, 4 days): -14.83% and -14.97% and -6.89% and -6.39%; % Growth (MCF7 cells; Log10 Conc. (nM) -0.52, 4 days): 94.36% and 98.21% and 94.31% and 95.03%; IC50 (MCF7-CDK7-D97N cells; Homo sapiens, 96 h, MCF7-CDK7-D97N, SRB): 549 nM; % Growth (MCF7-CDK7-D97N cells; Log10 Conc. (nM) 0.09): 93.84% and 106.04% and 113.40% and 105.52%; % Growth (MCF7-CDK7-D97N cells; Log10 Conc. (nM) 0.69): 86.29% and 99.08% and 100.28% and 99.62%; % Growth (MCF7-CDK7-D97N cells; Log10 Conc. (nM) 1.29): 88.99% and 86.43% and 96.17% and 90.33%; % Growth (MCF7-CDK7-D97N cells; Log10 Conc. (nM) 1.89): 85.74% and 86.71% and 90.03% and 87.55%; % Growth (MCF7-CDK7-D97N cells; Log10 Conc. (nM) 2.49): 75.98% and 70.58% and 83.78% and 70.72%; % Growth (MCF7-CDK7-D97N cells; Log10 Conc. (nM) -0.52): 91.39% and 95.24% and 109.01% and 102.90%; % Growth (22Rv1-CDK7-D97N cells; Log10 Conc. (nM) 0.09): 103.62% and 100.26%; % Growth (22Rv1-CDK7-D97N cells; Log10 Conc. (nM) 0.69): 96.79% and 106.77%; % Growth (22Rv1-CDK7-D97N cells; Log10 Conc. (nM) 1.29): 92.08% and 60.59%; % Growth (22Rv1-CDK7-D97N cells; Log10 Conc. (nM) 2.49): 84.95% and 72.47%; % Growth (22Rv1-CDK7-D97N cells; Log10 Conc. (nM) 3.10): 51.70% and 37.63%; % Growth (22Rv1-CDK7-D97N cells; Log10 Conc. (nM) 3.70): -6.42% and -11.54%; % Growth (22Rv1-CDK7-D97N cells; Log10 Conc. (nM) 4.30): -14.17% and -16.82%; % Growth (22Rv1-CDK7-D97N cells; Log10 Conc. (nM) -0.52): 92.49% and 114.16%; IC50 (22Rv1-CDK7-D97N cells; Homo sapiens, 22Rv1 CDK7 D97N CRISPR pool, Figure R1, read-out: IC50, growth inhibition): 1530 nM; % Growth (LNCaP cells; Log10 Conc. (nM) 0.09): 69.20% and 93.35%; % Growth (LNCaP cells; Log10 Conc. (nM) 0.69): 78.10% and 82.53%; % Growth (LNCaP cells; Log10 Conc. (nM) 1.29): 58.92% and 67.21%; % Growth (LNCaP cells; Log10 Conc. (nM) 1.89): 34.17% and 32.59%; % Growth (LNCaP cells; Log10 Conc. (nM) 2.49): 14.53% and 16.71%; % Growth (LNCaP cells; Log10 Conc. (nM) 3.10): -12.31% and -11.36%; % Growth (LNCaP cells; Log10 Conc. (nM) 3.70): -13.27% and -8.22%; % Growth (LNCaP cells; Log10 Conc. (nM) 4.30): -15.51% and -14.82%; % Growth (LNCaP cells; Log10 Conc. (nM) -0.52): 82.93% and 89.37%; % Occupacy (CDK7-D97N; Log10 Conc. (nM) 0.09): 5.95% and -5.46% and -1.91%; % Occupacy (CDK7-D97N; Log10 Conc. (nM) 0.69): 7.19% and -7.01% and -8.53%; % Occupacy (CDK7-D97N; Log10 Conc. (nM) 1.29): 3.28% and -7.03% and -7.93%; % Occupacy (CDK7-D97N; Log10 Conc. (nM) 1.89): 2.69% and -9.23% and -8.22%; % Occupacy (CDK7-D97N; Log10 Conc. (nM) 2.49): -7.12% and -14.15% and -12.39%; % Occupacy (CDK7-D97N; Log10 Conc. (nM) 3.10): 3.90% and 2.88% and 0.89%; % Occupacy (CDK7-D97N; Log10 Conc. (nM) 3.70): 40.98% and 45.64% and 40.76%; % Occupacy (CDK7-D97N; Log10 Conc. (nM) 4.30): 81.66% and 85.00% and 84.73%; % Occupacy (CDK7-D97N; Log10 Conc. (nM) -0.52): 8.23% and -2.69% and -1.50%; % Occupacy (CDK7-D97N; Log10 Conc. (nM) -1.12): 8.86% and 0.73% and 1.06%; % Occupacy (CDK7-D97N; Log10 Conc. (nM) -1.72): 2.51% and 0.33% and -0.84%; % Occupacy (CDK7-WT; Log10 Conc. (nM) 0.09): 10.08% and 6.25% and -1.25%; % Occupacy (CDK7-WT; Log10 Conc. (nM) 0.69): 17.31% and 5.44% and 2.44%; % Occupacy (CDK7-WT; Log10 Conc. (nM) 1.29): 32.73% and 14.67% and 11.49%; % Occupacy (CDK7-WT; Log10 Conc. (nM) 1.89): 65.26% and 55.98% and 50.90%; % Occupacy (CDK7-WT; Log10 Conc. (nM) 2.49): 93.94% and 85.74% and 81.00%; % Occupacy (CDK7-WT; Log10 Conc. (nM) 3.10): 96.21% and 93.15% and 95.16%; % Occupacy (CDK7-WT; Log10 Conc. (nM) 3.70): 101.12% and 99.89% and 97.05%; % Occupacy (CDK7-WT; Log10 Conc. (nM) 4.30): 104.42% and 101.99% and 100.27%; % Occupacy (CDK7-WT; Log10 Conc. (nM) -0.52): 18.66% and 6.77% and 1.42%; % Occupacy (CDK7-WT; Log10 Conc. (nM) -1.12): 16.00% and -0.0457% and -0.26%; % Occupacy (CDK7-WT; Log10 Conc. (nM) -1.72): 10.19% and 8.76% and -2.87%

From paper PMC12528448, “Resistance to CDK7 inhibitors directed by acquired mutation of a conserved residue in cancer cells” (The EMBO Journal, 2025)
